Source: US20230125964A1, “Methods for high throughput cryopreservation of cell clusters” (Regents of the University of Minnesota, priority 2021, published 2023)

Tests used:
SC-beta islets = details: individual components and mixtures at same total concentration (44%), FIG. 3C
Procedure: The full-strength CPA used was 22 wt % EG+22 wt % DMSO prepared in RPMI medium. To load the CPA, islets were first incubated in 20% CPA (i.e., 4.4 wt % EG+4.4 wt % DMSO) for 10 min at 21° C., followed by 50% CPA for 10 min at 4° C. and in 100% CPA for 10 min at 4° C. The islets suspension was then transferred to the cryomesh placed on a wicking material (i.e., paper towel). The CPA cocktail was wicked away through the nylon mesh and islets remained on the cryomesh. Clumping of islets was avoided. The cryomesh was quickly plunged into liquid nitrogen and stored in a liquid nitrogen tank. […]
Quantitative viability was measured on dissociated islet cells. […] After 15 seconds of incubation, 10 μL of the suspension was pipetted onto the Countess Cell Counting Chamber Slides (Thermo Fischer Scientific; Cat #C10228), and viability was quantified using a Countess II FL cell counter (Invitrogen by Thermo Fisher Scientific; Cat #AMQAF1000).
To optimize the CPA formulation, three overall CPA concentrations (33%, 44%, and 54%) were tested consisting of PG, EG, DMSO, or mixtures thereof. Qualitative and quantitative live/dead staining was used to measure SC-beta islet viability for each CPA after loading and unloading (FIG. 2F) and after VR. Qualitative measurements were determined by confocal imaging of intact islets after staining with acridine orange (AO) and propidium iodide (PI). […]

[1] = cited from earlier work

Row | Compound | islet toxicity after CPA loading and unloading (SC-beta islets) | Transport: share achieving normoglycemia ([1]; canine islets to mice) | Transport: time to normoglycemia ([1]; literature studies)
1 | OCCO [EG, ethylene glycol] | least islet toxicity of the three individual components |  | 
2 | C[S+](C)[O-] [DMSO, dimethyl sulfoxide] |  | 62% | in 4 days
